From PubChem BioAssay AID248 (DTP/NCI, 2004)
Several values for one entry are separate records, joined by “and”; a condition that tells them apart may be missing. Identical values can stand only once. Toxic doses and inconclusive results are not listed. Cut-off read from the data, not from the text of the source: active = T/C of 150% or more; inactive = T/C below 125%.

System: L1210 leukemia ip in BDF1 mice, survival T/C
Assay: NCI In Vivo Anticancer Drug Screen. Data for tumor model L1210 Leukemia (intraperitoneal) in B6D2F1 (BDF1) mice
Settings: endpoint: mean survival time, higher = longer survival
How it was run: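 In this screen, tumor-bearing mice given compound are compared to those given vehicle, and their survival values are reported as a treated-to-control quotient.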

[1] = dose: 100.0 mg/kg/injection, schedule: Q01DX001 (ip), vehicle: saline
[2] = dose: 25.0 mg/kg/injection, schedule: Q04DX003 (ip), vehicle: Klucel (hydroxypropylcellulose) (HPC)
[3] = dose: 75.0 mg/kg/injection, schedule: Q01DX001 (ip), vehicle: saline
[4] = dose: 150.0 mg/kg/injection, schedule: Q01DX001 (ip), vehicle: saline
[5] = dose: 100.0 mg/kg/injection, schedule: Q01DX001 (ip), vehicle: saline with Tween-80
[6] = dose: 100.0 mg/kg/injection, schedule: Q04DX003 (ip), vehicle: Klucel (hydroxypropylcellulose) (HPC)
[7] = dose: 300.0 mg/kg/injection, schedule: Q01DX001 (ip), vehicle: saline
[8] = dose: 100.0 mg/kg/injection, schedule: Q01DX009 (ip), vehicle: Klucel (hydroxypropylcellulose) (HPC)
[9] = dose: 200.0 mg/kg/injection, schedule: Q01DX009 (ip), vehicle: Klucel (hydroxypropylcellulose) (HPC)
[10] = dose: 200.0 mg/kg/injection, schedule: Q04DX003 (ip), vehicle: Klucel (hydroxypropylcellulose) (HPC)
[11] = dose: 400.0 mg/kg/injection, schedule: Q01DX009 (ip), vehicle: Klucel (hydroxypropylcellulose) (HPC)
[12] = dose: 400.0 mg/kg/injection, schedule: Q04DX003 (ip), vehicle: Klucel (hydroxypropylcellulose) (HPC)
[13] = dose: 100.0 mg/kg/injection, schedule: Q01DX009 (ip), vehicle: saline with Tween-80
[14] = dose: 100.0 mg/kg/injection, schedule: Q04DX002 (ip), vehicle: saline with Tween-80
[15] = dose: 200.0 mg/kg/injection, schedule: Q04DX002 (ip), vehicle: saline with Tween-80
[16] = dose: 400.0 mg/kg/injection, schedule: Q04DX002 (ip), vehicle: saline with Tween-80

Measured: T/C

O=C1/C(=C/c2ccc(O)c(O)c2)CCc2ccccc21
inactive: dose: 30.0 mg/kg/injection, schedule: Q01DX015 (ip), vehicle: saline 97 % of control | dose: 60.0 mg/kg/injection, schedule: Q01DX015 (ip), vehicle: saline 94 % of control | dose: 120.0 mg/kg/injection, schedule: Q01DX015 (ip), vehicle: saline 94 % of control | dose: 240.0 mg/kg/injection, schedule: Q01DX015 (ip), vehicle: saline 100 % of control

CCCCNC(c1ccccc1)=[N+]1CCCCC1
inactive: dose: 12.5 mg/kg/injection, schedule: Q04DX002 (ip), vehicle: saline 92 % of control | dose: 25.0 mg/kg/injection, schedule: Q04DX002 (ip), vehicle: saline 98 % of control

NC(Cc1cc(O)c(O)c(S(=O)(=O)c2ccccc2)c1)C(=O)O (centres undefined)
inactive: dose: 87.5 mg/kg/injection, schedule: Q01DX009 (ip), vehicle: saline 98 % of control | dose: 175.0 mg/kg/injection, schedule: Q01DX009 (ip), vehicle: saline 96 % of control | dose: 350.0 mg/kg/injection, schedule: Q01DX009 (ip), vehicle: saline 107 % of control

CC1(C)OC2CS(=O)(=O)CC2O1 (centres undefined)
inactive: dose: 100.0 mg/kg/injection, schedule: Q04DX003 (ip), vehicle: saline with Tween-80 100 % of control | dose: 200.0 mg/kg/injection, schedule: Q04DX003 (ip), vehicle: saline with Tween-80 105 % of control | dose: 400.0 mg/kg/injection, schedule: Q04DX003 (ip), vehicle: saline with Tween-80 102 % of control

COc1nc2c(N)ncnc2n1C1OC(CO)C(O)C1O (centres undefined)
inactive: [1] 97 % of control | dose: 200.0 mg/kg/injection, schedule: Q01DX001 (ip), vehicle: saline 103 % of control | dose: 400.0 mg/kg/injection, schedule: Q01DX001 (ip), vehicle: saline 103 % of control

O=[N+]([O-])c1c(Cl)ccc2nsnc12
inactive: dose: 12.5 mg/kg/injection, schedule: Q04DX003 (ip), vehicle: Klucel (hydroxypropylcellulose) (HPC) 96 % of control | [2] 93 % of control

CN(C)c1ncnc2c1ncn2C1OC(CO)C2NP(=O)(N(CCCl)CCCl)OC21 (centres undefined)
inactive: [3] 103 % of control | [4] 119 % of control

CC1(N(O)C(=O)NCCCl)CCCCC1
inactive: [5] 109 % of control | dose: 200.0 mg/kg/injection, schedule: Q01DX001 (ip), vehicle: saline with Tween-80 102 % of control | dose: 400.0 mg/kg/injection, schedule: Q01DX001 (ip), vehicle: saline with Tween-80 93 % of control

O=NO.O=N[O-].O=N[O-].[Co+3].[NH2-].[NH2-].[NH2-].[NH2-]
inactive: dose: 12.0 mg/kg/injection, schedule: Q01DX009 (ip), vehicle: Klucel (hydroxypropylcellulose) (HPC) 100 % of control | dose: 25.0 mg/kg/injection, schedule: Q01DX009 (ip), vehicle: Klucel (hydroxypropylcellulose) (HPC) 107 % of control | [2] 103 % of control | dose: 50.0 mg/kg/injection, schedule: Q01DX009 (ip), vehicle: Klucel (hydroxypropylcellulose) (HPC) 102 % of control | dose: 50.0 mg/kg/injection, schedule: Q04DX003 (ip), vehicle: Klucel (hydroxypropylcellulose) (HPC) 96 % of control | [6] 94 % of control and 110 % of control

O=C1Nc2ccccc2C12CNCS2 (centres undefined)
inactive: [3] 104 % of control | [4] 98 % of control | [7] 95 % of control

CCN1C(=O)NC(=O)/C(=C/N(CCO)CCO)C1=O
inactive: [8] 106 % of control | [6] 94 % of control | [9] 101 % of control | [10] 98 % of control | [11] 100 % of control | [12] 93 % of control

NC(N)=N/N=C/c1nccc2ccccc12
inactive: dose: 50.0 mg/kg/injection, schedule: Q01DX001 (ip), vehicle: saline 102 % of control | [1] 102 % of control

CC1(C)N=C(N)N=C(N)N1c1ccc(CCC(=O)CCl)cc1
inactive: dose: 25.0 mg/kg/injection, schedule: Q01DX001 (ip), vehicle: saline with Tween-80 92 % of control | dose: 50.0 mg/kg/injection, schedule: Q01DX001 (ip), vehicle: saline with Tween-80 95 % of control | [5] 95 % of control

OCC(O)COc1ccc(Cl)cc1Cl (centres undefined)
inactive: [13] 105 % of control | dose: 200.0 mg/kg/injection, schedule: Q01DX009 (ip), vehicle: saline with Tween-80 101 % of control

CNC(=S)NNC(=O)c1ccncc1
inactive: [14] 100 % of control | [15] 100 % of control | [16] 100 % of control

COC(=O)NC1CCCC1I (centres undefined)
inactive: [3] 102 % of control | [4] 109 % of control | [7] 98 % of control

O=C(N/N=C/c1ccc(Cl)cc1)C(O)(c1ccccc1)c1ccccc1
inactive: [13] 88 % of control | dose: 400.0 mg/kg/injection, schedule: Q01DX009 (ip), vehicle: saline with Tween-80 102 % of control

C=NNc1nc2ccccc2s1
inactive: dose: 100.0 mg/kg/injection, schedule: Q04DX003 (ip), vehicle: gum acacia 96 % of control | dose: 200.0 mg/kg/injection, schedule: Q04DX003 (ip), vehicle: gum acacia 88 % of control

CCCCNC(=O)Nc1ccccc1C(N)=O
inactive: [8] 97 % of control | [6] 98 % of control | [9] 95 % of control | [10] 94 % of control | [11] 105 % of control | [12] 96 % of control

Cc1c(C(=O)O)nnn1-c1ccc(Cl)cc1Cl
inactive: dose: 100.0 mg/kg/injection, schedule: Q04DX002 (ip), vehicle: Klucel (hydroxypropylcellulose) (HPC) 97 % of control | dose: 200.0 mg/kg/injection, schedule: Q04DX002 (ip), vehicle: Klucel (hydroxypropylcellulose) (HPC) 101 % of control

Cc1ccc(S(=O)N(OCc2ccccc2)S(=O)c2ccc(C)cc2)cc1 (centres undefined)
inactive: dose: 100.0 mg/kg/injection, schedule: Q04DX002 (ip), vehicle: other 100 % of control | dose: 200.0 mg/kg/injection, schedule: Q04DX002 (ip), vehicle: other 100 % of control | dose: 400.0 mg/kg/injection, schedule: Q04DX002 (ip), vehicle: other 100 % of control

Clc1ccc(-c2cc[s+]s2)cc1
inactive: dose: 12.5 mg/kg/injection, schedule: Q01DX009 (ip), vehicle: water 91 % of control | dose: 25.0 mg/kg/injection, schedule: Q04DX003 (ip), vehicle: water 100 % of control | dose: 50.0 mg/kg/injection, schedule: Q01DX009 (ip), vehicle: water 88 % of control | dose: 50.0 mg/kg/injection, schedule: Q04DX003 (ip), vehicle: water 98 % of control | dose: 100.0 mg/kg/injection, schedule: Q04DX003 (ip), vehicle: water 98 % of control and 92 % of control

C(=C\C1SCCCS1)/c1ccccc1
inactive: [14] 101 % of control | [15] 114 % of control | [16] 101 % of control

CC1CC(C)(C)OC(C(C)C)O1 (centres undefined)
inactive: dose: 50.0 mg/kg/injection, schedule: Q01DX009 (ip), vehicle: acetone 100 % of control | dose: 75.0 mg/kg/injection, schedule: Q01DX001 (ip), vehicle: acetone 95 % of control | dose: 100.0 mg/kg/injection, schedule: Q01DX009 (ip), vehicle: acetone 97 % of control | dose: 150.0 mg/kg/injection, schedule: Q01DX001 (ip), vehicle: acetone 92 % of control | dose: 200.0 mg/kg/injection, schedule: Q01DX009 (ip), vehicle: acetone 94 % of control | dose: 300.0 mg/kg/injection, schedule: Q01DX001 (ip), vehicle: acetone 87 % of control
